In US7199259B2, “Resolution of α-(phenoxy)phenylacetic acid derivatives” (Metabolex, Inc., priority 2003, dated 2007):

Assays:
[1] = Solubility in methylene chloride; format: physicochemical
[2] = target: cytochrome P450 2C9 (Homo sapiens, UniProt P11712); conditions: cited from earlier work
[3] = Solubility of racemic CPTA sodium salt in water; format: physicochemical; conditions: sodium hydroxide added to pH about 12.6 versus pH about 9.5
Description: A 100-mL water jacketed resin pot with a magnetic stirrer was connected to a recirculating water bath and charged with 3.48 g of the racemic CPTA sodium salt and 20.0 g of water. The bath temperature was warmed to 35° C., and the slurry was stirred for one hour. The agitator was shut off, and the solid was allowed to settle for 30 min. The pH was 9.4. A 0.3036 g-sample of the supernate was removed and diluted to 25.00 mL with acetonitrile, and the solution was assayed by HPLC analysis. Analysis was repeated at 47° C. and at 19° C. An additional 3.01 g of CPTA sodium salt was added to maintain a slurry at the higher temperature, and 25 g of water was added to give a thinner slurry at the lower temperature. The pH was increased to 12.7 at ambient temperature by the addition of 50% aqueous sodium hydroxide, and the analysis was continued at 13.5, 25, 34, and 42° C.

[4] = Solubility of diastereomeric CPTA-CAF D base salts in 2-propanol; format: physicochemical; conditions: for Wt % in solution: slurry held overnight
Description: Samples of (−)-CPTA CAF D Base and (+)-CPTA CAF D Base (>98% ee) were added to 2-propanol in the amounts shown in Table 8, and mixed using an ultrasonic bath. All samples remained slurries. The slurries were held overnight at the temperature listed, then samples of the supernates were removed and analyzed by quantitative HPLC analysis to determine the CPTA concentration. Additionally, 8.00 g of (−)-CPTA CAF D Base salt required 54.2 g of 2-propanol for solution at 82° C. (14.7 wt %).

[5] = Solubility of CPTA CAF D-Base salts in 2-propanol containing 11% free CPTA; format: physicochemical; conditions: 2-propanol with 11% free CPTA, FIG. 3
Description: “Solvent” was prepared by dissolving 2.40 g of racemic CPTA in 19.42 g of 2-propanol (Fisher HPLC Grade) or 4.90 g of racemic CPTA in 31.4 g of ethanol. The respective concentrations of CPTA in solution were 11.0% and 13.5%. Solubility of the (−)-CPTA·CAF D-Base Salt (i.e., (−)-Salt) or (+)-CPTA.CAF D-Base Salt (i.e., (+)-Salt) was determined by a gravimetric method. At a given temperature, a portion of the supernatant liquid from a saturated solution was remove to a vial of known weight. The solution weight was determined, and the volatile solvent was evaporated with a purge of nitrogen. The solid was further dried to constant weight in a vacuum oven at about 50° C./1 mm Hg. The vial was re-weighed to determine the loss of volatile solvent and weight of solid remaining. From this, the amount of dissolved CPTA from the “solvent” could be calculated. Subtracting the weight of total solid from the CPTA gave the weight of soluble salt in the solvent.

cytochrome P450 2C9, sequence (P11712 whole entry): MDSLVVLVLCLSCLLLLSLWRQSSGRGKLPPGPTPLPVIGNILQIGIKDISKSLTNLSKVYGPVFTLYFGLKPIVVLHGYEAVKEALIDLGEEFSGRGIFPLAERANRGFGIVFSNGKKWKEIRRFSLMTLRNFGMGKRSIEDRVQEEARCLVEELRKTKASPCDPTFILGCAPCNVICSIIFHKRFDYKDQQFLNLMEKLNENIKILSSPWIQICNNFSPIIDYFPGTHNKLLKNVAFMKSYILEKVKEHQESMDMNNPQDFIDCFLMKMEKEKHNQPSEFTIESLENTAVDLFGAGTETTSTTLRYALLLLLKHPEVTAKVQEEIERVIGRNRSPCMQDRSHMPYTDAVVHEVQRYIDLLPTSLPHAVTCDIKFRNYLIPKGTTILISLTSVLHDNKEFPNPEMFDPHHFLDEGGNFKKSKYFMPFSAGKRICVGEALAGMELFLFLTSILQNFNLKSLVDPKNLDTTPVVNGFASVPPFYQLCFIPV

In the case of `O=C(O)C(Oc1cccc(C(F)(F)F)c1)c1ccc(Cl)cc1` (racemic) [halofenic acid, (4-chlorophenyl)(3-trifluoromethylphenoxy)acetic acid], the “solubility in methylene chloride” value [1] is listed as “less than 3.4%” and the “inhibition of cytochrome P450 2C9” value ([2]; racemic acid) is listed as “inhibits”.

With `O=C([O-])C(Oc1cccc(C(F)(F)F)c1)c1ccc(Cl)cc1.[Na+]` (racemic) [sodium salt of racemic CPTA] the “aqueous solubility, effect of raising pH” value [3] was “decreased the aqueous solubility”.

In the case of `NC(CO)C(O)c1ccc([N+](=O)[O-])cc1.O=C(O)C(Oc1cccc(C(F)(F)F)c1)c1ccc(Cl)cc1` (single isomer, unassigned; (+)) [(+)-CPTA CAF D Base Salt], the “Wt % in solution” value ([4]; 8.5 °C) is reported as 1.32 Wt %, the “Wt % in solution” value ([4]; 20.0 °C) is reported as 1.85 Wt % and the “Wt % in solution” value ([4]; 45.8 °C) is reported as 6.03 Wt %. For the same compound, the “solubility in 2-propanol containing 11% free CPTA versus pure 2-propanol” value [5] was “greater solubility”.

For `NC(CO)C(O)c1ccc([N+](=O)[O-])cc1.O=C(O)C(Oc1cccc(C(F)(F)F)c1)c1ccc(Cl)cc1` (single isomer, unassigned; (-)) [(−)-CPTA CAF D Base Salt], the “Wt % in solution” value ([4]; 7.8 °C) was 0.376 Wt %, the “Wt % in solution” value ([4]; 19.4 °C) was 0.688 Wt % and the “Wt % in solution” value ([4]; 45.3 °C) was 2.35 Wt %. For the same compound, the “solubility in 2-propanol (amount required for solution)” value ([4]; 82 °C, 8.00 g salt in 54.2 g 2-propanol) was 14.7 wt %, the “solubility in 2-propanol relative to the (+)-CPTA form” value ([4]; FIG. 1 profiles) was “approximately three times less soluble” and the “solubility in 2-propanol containing 11% free CPTA versus pure 2-propanol” value [5] was “greater solubility”.

In the case of `O=C(O)C(Oc1cccc(C(F)(F)F)c1)c1ccc(Cl)cc1` (single isomer, unassigned; (-)) [(−)-enantiomer of halofenic acid], the “ability to inhibit cytochrome P450 2C9 compared to the (+)-enantiomer” value ([2]; relative to (+)-enantiomer of halofenic acid) is listed as “about twenty-fold less active”.
